Laboratory results as given in ChEMBL document CHEMBL1201862, “PubChem BioAssay data set” (2004).
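Each compound was tested at five concentrations against cells in 96-well plates for 48 hours. GI50 = concentration required for 50% inhibition of growth.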 Activity calls are given as the source filed them. No stated cut-off is given here; in the data, active = GI50 up to about 1.1 µM and inactive = higher.

Assays:
Assay in all cases: NCI tumour cell line growth inhibition, 48 h
SK-MEL-5 = test system: SK-MEL-5
OVCAR-4 = test system: OVCAR-4
UO-31 = test system: UO-31
SW-620 = test system: SW-620
Hs-578T = test system: Hs-578T
LOX IMVI = test system: LOX IMVI
HOP-62 = test system: HOP-62
A549 = test system: A549
OVCAR-3 = test system: OVCAR-3
HCC 2998 = test system: HCC 2998
Malme-3M = test system: Malme-3M
HCT-116 = test system: HCT-116
MDA-MB-435 = test system: MDA-MB-435
DU-145 = test system: DU-145
NCI/ADR-RES = test system: NCI/ADR-RES
SF-539 = test system: SF-539
SK-MEL-28 = test system: SK-MEL-28
RPMI-8226 = test system: RPMI-8226
HL-60 = test system: HL-60
RXF 393 = test system: RXF 393

Measured: GI50

Clc1sc(Cl)c2c1[C@@H](Cl)C[C@@H]2Cl
inactive: SK-MEL-5 > 100 µM | OVCAR-4 74.3 µM | UO-31 76 µM | SW-620 57.1 µM | Hs-578T 38.1 µM | LOX IMVI 49.4 µM | HOP-62 > 100 µM | A549 61.9 µM | OVCAR-3 > 100 µM | HCC 2998 63.4 µM | Malme-3M 29.7 µM | HCT-116 53.5 µM | MDA-MB-435 92 µM | DU-145 > 100 µM | NCI/ADR-RES > 100 µM | SF-539 > 100 µM | SK-MEL-28 84.9 µM

Nc1c(C(=O)O)nnc2ccc(Cl)cc12
inactive: SK-MEL-5 > 100 µM | OVCAR-4 > 100 µM | UO-31 94.8 µM | SW-620 > 100 µM | Hs-578T > 100 µM | LOX IMVI > 100 µM | HOP-62 > 100 µM | A549 > 100 µM | RPMI-8226 > 100 µM | OVCAR-3 > 100 µM | HCC 2998 > 100 µM | Malme-3M > 100 µM | HL-60 > 100 µM | HCT-116 > 100 µM | MDA-MB-435 > 100 µM | DU-145 > 100 µM | NCI/ADR-RES > 100 µM | SF-539 > 100 µM

O=C(O)c1ccc(NNc2cc(=O)[nH]c(=O)[nH]2)cc1
inactive: RXF 393 > 100 µM | SK-MEL-5 > 100 µM | OVCAR-4 > 100 µM | UO-31 > 100 µM | SW-620 > 100 µM | Hs-578T > 100 µM | LOX IMVI > 100 µM | HOP-62 > 100 µM | A549 > 100 µM | RPMI-8226 > 100 µM | OVCAR-3 > 100 µM | HCC 2998 > 100 µM | Malme-3M > 100 µM | HL-60 > 100 µM | HCT-116 > 100 µM | DU-145 > 100 µM | NCI/ADR-RES > 100 µM | SF-539 > 100 µM | SK-MEL-28 > 100 µM

CO/C(=N\N=C\c1ccc(OC)c(OC)c1)c1ccncc1
inactive: SK-MEL-5 > 10 µM | OVCAR-4 > 10 µM | UO-31 9.55 µM | SW-620 > 10 µM | Hs-578T > 10 µM | LOX IMVI > 10 µM | HOP-62 > 10 µM | A549 > 10 µM | RPMI-8226 > 10 µM | HCC 2998 > 10 µM | Malme-3M > 10 µM | HL-60 > 10 µM | DU-145 > 10 µM | NCI/ADR-RES > 10 µM | SF-539 > 10 µM

Cc1ccc(C2SCC(=O)N2c2ccc(-c3ccc(-n4c(-c5ccccc5)nc5ccccc5c4=O)cc3)cc2)cc1 (configuration not stated)
inactive: SK-MEL-5 41.1 µM | OVCAR-4 51.3 µM | UO-31 18.6 µM | SW-620 > 100 µM | Hs-578T 55.5 µM | LOX IMVI 54.1 µM | HOP-62 > 100 µM | A549 > 100 µM | RPMI-8226 > 100 µM | OVCAR-3 > 100 µM | HCC 2998 > 100 µM | Malme-3M > 100 µM | HL-60 31 µM | MDA-MB-435 88.3 µM | DU-145 > 100 µM | NCI/ADR-RES 91.4 µM | SK-MEL-28 > 100 µM

CNC(=O)N(C)C(=O)c1ccccc1C(=O)N(C)C(=O)NC
inactive: RXF 393 > 10 µM | SK-MEL-5 > 10 µM | OVCAR-4 > 10 µM | UO-31 > 10 µM | SW-620 > 10 µM | Hs-578T > 10 µM | LOX IMVI > 10 µM | HOP-62 > 10 µM | A549 > 10 µM | RPMI-8226 > 10 µM | OVCAR-3 > 10 µM | HCC 2998 > 10 µM | Malme-3M > 10 µM | HL-60 > 10 µM | HCT-116 > 10 µM | DU-145 > 10 µM | NCI/ADR-RES > 10 µM | SF-539 > 10 µM | SK-MEL-28 > 10 µM

CCCOC(=O)c1cc(C(=CCC[C@H]2CC[C@@]3(C)[C@@H](CC[C@@H]4[C@@H]3CC[C@]3(C)[C@@H](C(C)CCCC(C)C)CC[C@@H]43)C2)c2cc(Cl)c(O)c(C(=O)OCCC)c2)cc(Cl)c1O (some centres not stated)
inactive: SK-MEL-5 > 50 µM | OVCAR-4 > 50 µM | SW-620 > 50 µM | Hs-578T > 50 µM | LOX IMVI > 50 µM | HOP-62 > 50 µM | RPMI-8226 > 50 µM | OVCAR-3 > 50 µM | HCC 2998 > 50 µM | HL-60 > 50 µM | HCT-116 > 50 µM | MDA-MB-435 > 50 µM | DU-145 > 50 µM | NCI/ADR-RES > 50 µM

COc1ccc(-c2nc3ncccn3c2-c2ccc(S(C)(=O)=O)cc2)cc1
inactive: SK-MEL-5 48.2 µM | OVCAR-4 > 100 µM | UO-31 > 100 µM | SW-620 > 100 µM | Hs-578T > 100 µM | LOX IMVI > 100 µM | HOP-62 > 100 µM | A549 > 100 µM | RPMI-8226 41.7 µM | OVCAR-3 75.7 µM | HL-60 > 100 µM | HCT-116 > 100 µM | MDA-MB-435 38 µM | DU-145 > 100 µM | NCI/ADR-RES > 100 µM | SF-539 > 100 µM | SK-MEL-28 > 100 µM

O=C(O)COc1cc(-c2ccccc2)nc2ccccc12
inactive: SK-MEL-5 33.9 µM | OVCAR-4 77.1 µM | UO-31 61.4 µM | SW-620 59.7 µM | Hs-578T 62.4 µM | LOX IMVI 99.8 µM | HOP-62 95.9 µM | A549 66.4 µM | RPMI-8226 86.7 µM | OVCAR-3 > 100 µM | HCC 2998 > 100 µM | Malme-3M > 100 µM | HL-60 41.2 µM | HCT-116 36.8 µM | MDA-MB-435 16 µM | DU-145 > 100 µM | NCI/ADR-RES 52.1 µM | SF-539 70.8 µM | SK-MEL-28 73.3 µM

c1ccc2c(c1)SC1=C(SC(=C3SC4=C(S3)Sc3ccccc3S4)S1)S2
inactive: SK-MEL-5 > 100 µM | OVCAR-4 > 100 µM | UO-31 > 100 µM | SW-620 > 100 µM | Hs-578T 23.3 µM | LOX IMVI > 100 µM | HOP-62 36.9 µM | A549 > 100 µM | RPMI-8226 > 100 µM | OVCAR-3 > 100 µM | HCC 2998 > 100 µM | Malme-3M > 100 µM | HL-60 > 100 µM | HCT-116 > 100 µM | MDA-MB-435 > 100 µM | DU-145 > 100 µM | NCI/ADR-RES > 100 µM | SF-539 > 100 µM | SK-MEL-28 > 100 µM

CCN(CC)CC1CCCCN1CC(=O)N1c2ccc(Br)cc2C(=O)Nc2cccnc21 (configuration not stated)
inactive: RXF 393 > 100 µM | SK-MEL-5 > 100 µM | OVCAR-4 > 100 µM | UO-31 27.2 µM | Hs-578T > 100 µM | LOX IMVI > 100 µM | HOP-62 > 100 µM | A549 > 100 µM | RPMI-8226 > 100 µM | OVCAR-3 > 100 µM | HCC 2998 > 100 µM | Malme-3M > 100 µM | HL-60 > 100 µM | HCT-116 > 100 µM | MDA-MB-435 > 100 µM | DU-145 > 100 µM | SF-539 > 100 µM | SK-MEL-28 > 100 µM
